Results: PubChem BioAssay (NCI)
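A five-concentration, 48-hour dose response in 96-well plates underlies each endpoint, interpolated linearly between surrounding concentrations. Here, GI50 denotes the concentration required for 50% inhibition of growth. Definition used: TGI = concentration required for complete inhibition of growth.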

Columns and labels:
Experiment in all cases: NCI tumour cell line growth inhibition, 48 h
786-0 renal = test system: 786-0 renal
HL-60(TB) leukemia = test system: HL-60(TB) leukemia
HOP-62 NSCLC = test system: HOP-62 NSCLC
HT29 colon = test system: HT29 colon
RXF 393 renal = test system: RXF 393 renal
SK-OV-3 ovarian = test system: SK-OV-3 ovarian
SW-620 colon = test system: SW-620 colon
U251 CNS = test system: U251 CNS

| Structure (SMILES) | TGI (786-0 renal) | TGI (HL-60(TB) leukemia) | TGI (HOP-62 NSCLC) | TGI (HT29 colon) | TGI (RXF 393 renal) | TGI (SK-OV-3 ovarian) | TGI (SW-620 colon) | TGI (U251 CNS) | GI50 (786-0 renal) | GI50 (HL-60(TB) leukemia) | GI50 (HOP-62 NSCLC) | GI50 (HT29 colon) | GI50 (SK-OV-3 ovarian) | GI50 (SW-620 colon) | GI50 (U251 CNS) | GI50 (RXF 393 renal) |
| --- | --- | --- | --- | --- | --- | --- | --- | --- | --- | --- | --- | --- | --- | --- | --- | --- |
| CN(C)CCC(/C=C/c1ccccc1)=N\Nc1ccc(Cl)cc1 | 6.26 µM | 5.32 µM | 4.07 µM | 13.9 µM | 20.9 µM | 13.4 µM | 14.7 µM | 5.51 µM | – | – | – | – | – | – | – | – |
| COc1ccc(C(=O)C/C(=N/NC(N)=S)C(=O)Nc2ccccc2)cc1 | > 100 µM | > 100 µM | – | > 100 µM | > 100 µM | > 100 µM | > 100 µM | > 100 µM | – | – | – | – | – | – | – | – |
| C[CH2][Ge]([CH2]C)([CH2]C)[O]C(=O)C([O][Ge]([CH2]C)([CH2]C)[CH2]C)c1ccccc1 (stereo not drawn) | 74.3 µM | 38.9 µM | 42.8 µM | 46.4 µM | 16.1 µM | 31.7 µM | 42.2 µM | 41.4 µM | 22.4 µM | 14.7 µM | 19.5 µM | 16.4 µM | 11.1 µM | 18.9 µM | 17.2 µM | – |
| CCP(C)(C)=O | > 100 µM | – | > 100 µM | > 100 µM | > 100 µM | > 100 µM | > 100 µM | > 100 µM | – | – | – | – | – | – | – | – |
| CC(C)(C)c1cc(-c2c3nc(c(-c4cc(C(C)(C)C)cc(C(C)(C)C)c4)c4ccc([nH]4)c(-c4cc(C(C)(C)C)cc(C(C)(C)C)c4)c4nc(c(-c5cc(C(C)(C)C)cc(C(C)(C)C)c5)c5ccc2[nH]5)C=C4)C=C3)cc(C(C)(C)C)c1 | > 100 µM | > 100 µM | > 100 µM | > 100 µM | > 100 µM | > 100 µM | > 100 µM | > 100 µM | – | – | – | – | – | – | – | – |
| CCOC(=O)C1=C(C)N(NC(=O)OC)C2(N)N(NC(=O)OC)C(C)=C(C(=O)OCC)C12C#N (stereo not drawn) | > 100 µM | > 100 µM | > 100 µM | > 100 µM | – | > 100 µM | > 100 µM | > 100 µM | – | – | – | – | – | – | – | – |
| Cc1ccccc1NC(=O)C(=O)CC(=O)C1CCOC1=O (stereo not drawn) | > 100 µM | > 100 µM | > 100 µM | – | > 100 µM | > 100 µM | > 100 µM | > 100 µM | – | – | – | – | – | – | – | – |
| NC1=NCC(c2ccccn2)C1c1ccc(F)cc1 (stereo not drawn) | > 100 µM | – | > 100 µM | > 100 µM | > 100 µM | > 100 µM | > 100 µM | > 100 µM | – | – | – | – | – | – | – | – |
| Cc1nc2ccccc2c(/C=C/c2ccccc2)c1C(=O)/C=C/c1ccc(Cl)cc1 | 2.99 µM | 3.12 µM | – | 6.36 µM | 2.64 µM | > 100 µM | 5.72 µM | 2.88 µM | 1.58 µM | 0.871 µM | – | 0.9 µM | > 100 µM | 1.71 µM | 1.51 µM | 1.28 µM |
| CC1(C)Cc2nnsc2C2=C1C(=O)CCS2 | > 100 µM | > 100 µM | > 100 µM | > 100 µM | > 100 µM | > 100 µM | > 100 µM | > 100 µM | – | – | – | – | – | – | – | – |
| O=C([CH-]C(=O)c1ccccc1)c1ccccc1.[CH3-].[CH3-].[CH3-].[Sn+4] | 33.1 µM | 16 µM | 94.9 µM | 60.3 µM | 31.9 µM | 70.1 µM | 26 µM | 52 µM | 10.2 µM | 2.67 µM | 22.9 µM | 19.2 µM | 27.1 µM | 12.3 µM | 6.87 µM | 10.6 µM |
| COC1C(O)CC(OC2CC(OC3CC(O[C@@H]4C(=O)c5c(cc6cc(OC7CC(OC8CC(O)C(O)C(C)O8)C(O)C(C)O7)c(C)c(O)c6c5O)C[C@H]4[C@H](OC)C(=O)[C@@H](O)[C@@H](C)O)OC(C)C3O)OC(C)C2O)OC1C (stereo partly drawn) | > 100 µM | 1.57 µM | 3.87 µM | > 56 µM | – | > 100 µM | > 100 µM | > 9.45 µM | – | < 0.0215 µM | – | – | – | – | – | – |
| C/C(CC(=O)Nc1ccccc1)=N\NC(N)=S | > 100 µM | > 100 µM | > 100 µM | > 100 µM | > 100 µM | > 100 µM | > 100 µM | > 100 µM | – | – | – | – | – | – | – | – |
| COc1ccc(/C(=C\c2cc(OC)c(OC)c(OC)c2)C(=O)O)cc1 | > 100 µM | 72.3 µM | > 100 µM | > 100 µM | 39.7 µM | – | > 100 µM | > 100 µM | – | – | – | – | – | – | – | – |
| CC1NCCc2c1[nH]c1cc(O)ccc21 (stereo not drawn) | > 100 µM | > 100 µM | > 100 µM | > 100 µM | > 100 µM | > 100 µM | > 100 µM | – | – | – | – | – | – | – | – | – |
| Cc1nnc2n1N=C(c1ccc(-c3ccc([N+](=O)[O-])cc3)o1)CS2 | > 100 µM | > 100 µM | > 100 µM | – | – | > 100 µM | > 100 µM | > 100 µM | – | – | – | – | – | – | – | – |
| C/C=C/C=C/CCCCCCCCCCCCC[C@]1(OC)C=CC(CC(=O)OC)OO1 (stereo partly drawn) | 33.4 µM | – | > 100 µM | 48.1 µM | 31 µM | 81 µM | 33 µM | – | 17.1 µM | – | 43.9 µM | 21.9 µM | – | 16.7 µM | – | 16.5 µM |
| Cc1cc(Cl)cc2c1NC(=O)C2(O)CC(=O)c1ccc(F)cc1 (stereo not drawn) | > 100 µM | – | > 100 µM | > 100 µM | 41.5 µM | > 100 µM | > 100 µM | > 100 µM | – | – | – | – | – | – | – | – |
